The test system of one series is COX II enzyme. Particulars: J. Biol. Chem., 268, 6610 (1993); cited from earlier work.
Series [1] deals with carrageenan-induced hyperalgesic foot withdrawal. The series is described as follows: Rat Carrageenan-induced Analgesia Test. The following applies: oral, 3 h after carrageenan. The series is classed as in vivo, rat (male Sprague-Dawley). The procedure:
(§1) The carrageenan foot edema test was performed with materials, reagents and procedures essentially as described by Winter, et al., (Proc. Soc. Exp. Biol. Med., 111, 544 (1962) Male Sprague-Dawlev rats were selected in each group so that the average body weight was as close as possible. Rats were fasted with free access to water for over sixteen hours prior to the test. The rats were dosed orally (1 mL) with compounds suspended in vehicle containing 0.5% methylcellulose and 0.025% surfactant, or with vehicle alone. one hour later a subplantar injection of 0.1 mL of 1% solution of carrageenan/sterile 0.9% saline was administered and the volume of the injected foot was measured with a displacement plethysmometer connected to a pressure transducer with a digital indicator. Three hours after the injection of the carrageenan, the volume of the foot was again measured. The average foot swelling in a group of drug-treated animals was compared with that of a group of placebo-treated animals and the percentage inhibition of edema was determined (Otterness and Bliven, Laboratory Models for Testing NSAIDs, in Non-steroidal Anti-Inflammatory Drugs, (J. Lombardino, ed. 1985)).
The analgesia test using rat carrageenan was performed with materials, reagents and procedures essentially as described by Hargreaves, et al., (Pain, 32, 77 (1988)). Male Sprague-Dawley rats were treated as previously described, for the Carrageenan Foot Pad Edema test. Three hours after the injection of the carrageenan, the rats were placed in a special plexiglass container with a transparent floor having a high intensity lamp as a radiant heat source, positionable under the floor. After an initial twenty minute period, thermal stimulation was begun on either the injected foot or on the contralateral uninjected foot. […] The time until the rat withdraws its foot was then measured. The withdrawal latency in seconds was determined for the control and drug-treated groups, and percent inhibition of the hyperalgesic foot withdrawal determined.

In a further series the test system is carrageenan foot edema. The series is described as follows: Rat Carrageenan Foot Pad Edema Test. It counts as in vivo, rat (male Sprague-Dawley). The following applies: @ 10 mg/kg body weight, oral, 3 h after carrageenan. The procedure:
as §1
A general note: Carrageenan injected into the paw causes an acute inflammation.

The conditions of series [2]: reported in cited literature or patents; cited from earlier work.
In another series the target is T1, Murine COX I (Mus musculus, UniProt P22437).
T1 construct: A 2.0 kb fragment containing the coding region; made in house; host or cells: SF9 insect cells (recombinant baculovirus, pVL1393)
T1 sequence (P22437 27-602): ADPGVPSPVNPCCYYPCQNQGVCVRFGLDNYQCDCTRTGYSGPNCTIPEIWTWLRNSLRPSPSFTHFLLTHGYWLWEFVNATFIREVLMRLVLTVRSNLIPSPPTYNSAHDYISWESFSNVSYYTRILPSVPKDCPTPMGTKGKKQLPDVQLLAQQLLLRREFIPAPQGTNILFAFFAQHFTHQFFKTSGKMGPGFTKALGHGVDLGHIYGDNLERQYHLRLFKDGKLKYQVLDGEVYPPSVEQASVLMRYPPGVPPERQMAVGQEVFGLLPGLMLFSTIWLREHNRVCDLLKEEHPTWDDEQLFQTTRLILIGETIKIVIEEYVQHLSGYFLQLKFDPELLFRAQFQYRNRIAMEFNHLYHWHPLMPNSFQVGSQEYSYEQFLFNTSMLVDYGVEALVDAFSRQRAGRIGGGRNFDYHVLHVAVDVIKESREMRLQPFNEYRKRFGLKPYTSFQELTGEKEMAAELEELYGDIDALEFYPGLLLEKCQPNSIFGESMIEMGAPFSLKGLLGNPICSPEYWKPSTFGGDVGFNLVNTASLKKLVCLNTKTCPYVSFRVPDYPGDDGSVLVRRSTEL
The series is described as follows: COX I activity in vitro (PGE2 ELISA, recombinant enzyme). Particulars: arachidonic acid 10 μM, read-out: Murine COX I ID50. The series is classed as biochemical. The method, then: (§2) A 2.0 kb fragment containing the coding region of either human or murine COX-I or human or murine COX-II was cloned into a BamH1 site of the baculovirus transfer vector pVL1393 to generate the baculovirus transfer vector. Recombinant baculoviruses were isolated by transfecting 4 μg of baculovirus transfer vector DNA into SF9 cells (2×10e8) along with 200 ng of linearized baculovirus plasmid DNA by the calcium phosphate method. Recombinant viruses were purified by three rounds of plaque purification and high titer (10E7-10E8 pfu/ml) stocks of virus were prepared. For large scale production, SF9 insect cells were infected in 10 liter fermentors (Bioprocess group) 0.5×10^6 /ml) with the recombinant baculovirus stock such that the multiplicity of infection was 0.1. […] The homogenate was centrifuged at 10,000×G for 30 minutes, and the resultant supernatant was stored at -80° C. before being assayed for COX activity.
(§3) COX activity was assayed as PGE2 formed/μg protein/time using an ELISA to detect the prostaglandin released. CHAPS-solubilized insect cell membranes containing the appropriate COX enzyme were incubated in a potassium phosphate buffer (50 mM, pH 8.0) containing epinephrine, phenol, and heme with the addition of arachidonic acid (10 μM). […] The PGE2 formed was measured by standard ELISA technology (Cayman Chemical).

The conditions of series [3]: Gen. Pharmac., 24, 105 (1993); cited from earlier work.
In a further series the test system is prostaglandin synthetase. The following applies: U.S. Pat. No. 4,820,827; cited from earlier work.
In another series the target is T2, Murine COX II (Mus musculus, UniProt Q05769).
T2 construct: A 2.0 kb fragment containing the coding region; made in house; host or cells: SF9 insect cells (recombinant baculovirus, pVL1393)
T2 sequence (Q05769 18-604): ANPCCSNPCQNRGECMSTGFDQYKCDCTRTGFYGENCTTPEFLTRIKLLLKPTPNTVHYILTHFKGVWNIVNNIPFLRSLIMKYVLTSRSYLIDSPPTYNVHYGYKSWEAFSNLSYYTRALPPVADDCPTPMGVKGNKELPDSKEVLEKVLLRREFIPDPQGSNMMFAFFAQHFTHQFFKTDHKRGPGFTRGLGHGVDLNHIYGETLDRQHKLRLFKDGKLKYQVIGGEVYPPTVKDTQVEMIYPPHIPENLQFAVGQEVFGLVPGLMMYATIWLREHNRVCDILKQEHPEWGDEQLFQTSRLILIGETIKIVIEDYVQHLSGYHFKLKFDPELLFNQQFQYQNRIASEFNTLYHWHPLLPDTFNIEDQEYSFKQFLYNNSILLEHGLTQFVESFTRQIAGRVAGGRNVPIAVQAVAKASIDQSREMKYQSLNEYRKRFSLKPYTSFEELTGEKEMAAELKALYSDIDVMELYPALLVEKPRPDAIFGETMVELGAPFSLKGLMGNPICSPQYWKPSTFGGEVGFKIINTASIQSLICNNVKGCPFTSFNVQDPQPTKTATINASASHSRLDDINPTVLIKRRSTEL
Briefly: COX II activity in vitro (PGE2 ELISA, recombinant enzyme). It counts as biochemical. Particulars: arachidonic acid 10 μM, read-out: Murine COX II ID50. The procedure: as §2, §3
A general note: An ELISA detects its analyte on a solid surface through an enzyme-linked reagent.

pIC50: −log10 of the molar value.

Regarding `COc1ccc2cc(CC(=O)O)ccc2c1` [6-methoxy-2-napthylacetic acid], the “inhibition of the COX II enzyme” value with COX II enzyme is listed as “selectively inhibit the COX II enzyme”.

For the compound `CS(=O)(=O)c1ccc(-c2csc(Br)c2-c2ccc(F)cc2)cc1` [Example 2, 4-(4-Methylsulfonylphenyl)-3-(4-fluorophenyl)-2-bromothiophene], in series [1] (@3 mpk), the “ANALGESIA % Inhibition” value is recorded as 0%. In addition, the “RAT PAW EDEMA % Inhibition” value in the series on carrageenan foot edema amounted to 30%.

As to `COc1ccc(-c2cscc2-c2ccc(OC)cc2)cc1` [Example 4, 3,4-Bis(4-methoxyphenyl)thiophene], the “RAT PAW EDEMA % Inhibition” value in the series on carrageenan foot edema is on record as 22%.

Take `CCOC(=O)CCc1scc(-c2ccccc2)c1-c1ccccc1` [ethyl 3,4-diphenylthiophene-2-propionate]: the antiinflammatory activity result in series [2] is “antiinflammatory activity”.

Turning to `CS(=O)(=O)c1ccc(-c2c(Br)sc(Br)c2-c2ccc(F)cc2)cc1` [Example 3, 4-(4-Methylsulfonylphenyl)-3-(4-fluorophenyl)-2,5-dibromothiophene], on Murine COX I, the pIC50 is 4.00.

`CS(=O)(=O)Nc1ccc([N+](=O)[O-])cc1OC1CCCCC1` [N-(2-cyclohexyloxy-4-nitrophenyl)methanesulfonamide]: in series [2], the antiinflammatory activity result was “antiinflammatory”. Further, the gastric side effects result in series [3] is listed as “lacks gastric side effects”.

Regarding `Cc1cc(F)ccc1-c1cscc1-c1ccc(S(C)(=O)=O)cc1` [Example 15], in the series with carrageenan foot edema, the “RAT PAW EDEMA % Inhibition” value is 20%.

Take `CS(=O)(=O)c1ccc(-c2cscc2-c2ccc(F)cc2)cc1` [Example 1, 3-(4-Methylsulfonylphenyl)-4-(4-fluorophenyl)thiophene]: the “ANALGESIA % Inhibition” value in series [1] (@ 20 mg/kg body weight) is reported as 8%.

Take `CS(=O)(=O)c1ccc(-c2cscc2-c2ccc(F)nc2)cc1` [Example 14]: in series [1] (@ 20 mg/kg body weight), the “ANALGESIA % Inhibition” value worked out at 28%. Also, the “RAT PAW EDEMA % Inhibition” value in the series with carrageenan foot edema amounted to 30%.

On to `CSc1ccc(-c2sc(Br)cc2-c2ccc(F)cc2)cc1` [5-bromo-2-(4-methylthiophenyl)-3-(4-fluorophenyl)thiophene], for which the antiinflammatory activity result in series [2] was “antiinflammatory”. Moreover, the “prostaglandin synthetase inhibitory activity” value with prostaglandin synthetase is “prostaglandin synthetase inhibitory activity”.

As for `CCOC(=O)c1sc(C(=O)O)c(-c2ccc(F)cc2)c1-c1ccc(S(C)(=O)=O)cc1` [Example 8, 2-Ethoxycarbonyl-4-(4-fluorophenyl)-3-(4-methanesulfonylphenyl)-thienyl-5-carboxylic acid], the results for the pIC50 at Murine COX I and at Murine COX II were less than 4.00 and 5.26, respectively.
